Consider 28 compounds from patent US8163909B2, “Substituted hydroxyethyl amine compounds as beta-secretase modulators and methods of use” (Amgen Inc., priority 2007, dated 2012).

Read-outs that look alike come from different tables or passages of the source.

In test [1] the target is Beta Secretase enzyme (BACE) (Homo sapiens, UniProt P56817). In words: In vitro enzymatic BACE FRET (fluorescence resonance energy transfer) assay.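 Further: fluorescence read after 1 h with 50 nM quenched peptide substrate spanning the BACE cleavage site, in pH 4.2 acetate buffer containing 10% DMSO and nonionic detergent.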 Format: biochemical.
Sequence of Beta Secretase enzyme (BACE) (P56817 46-501): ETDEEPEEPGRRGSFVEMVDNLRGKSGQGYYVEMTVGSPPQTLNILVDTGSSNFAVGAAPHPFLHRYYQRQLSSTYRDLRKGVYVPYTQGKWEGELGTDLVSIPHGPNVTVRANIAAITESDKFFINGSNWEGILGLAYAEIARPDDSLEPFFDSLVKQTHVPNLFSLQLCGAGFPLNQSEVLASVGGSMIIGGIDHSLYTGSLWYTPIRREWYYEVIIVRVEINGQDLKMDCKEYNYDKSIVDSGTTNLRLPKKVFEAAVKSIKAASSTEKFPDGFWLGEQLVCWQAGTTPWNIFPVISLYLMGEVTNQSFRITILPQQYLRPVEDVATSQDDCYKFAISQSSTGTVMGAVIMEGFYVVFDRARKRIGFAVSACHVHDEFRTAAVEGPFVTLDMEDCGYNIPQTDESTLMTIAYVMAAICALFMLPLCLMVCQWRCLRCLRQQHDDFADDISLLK
Test [2] relates to Aβ40 in conditioned medium of cells stably expressing Amyloid Precursor Protein (APP). In words: In vitro BACE cell-based assay (Aβ40 in conditioned medium, sandwich ELISA).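 Further: compounds added as a dilution series, secreted peptide quantified by europium time-resolved fluorescence readout, potency fitted from percent of control versus compound concentration.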 A general note: In an ELISA, binding on a coated surface is turned into a signal by an enzyme label.
Setting [3] is: BACE enzyme FRET assay, read-out: BACE1 FRET assay (IC50).
[4] abbreviates: Homo sapiens, HEK293, HEK cells, cell-based assay, read-out: HEK cell assay (IC50).
The mark [5] stands for this setting: Table 1, read-out: BACE1 FRET assay.
Where [6] appears, read: Homo sapiens, HEK293, Table 1, HEK cells, read-out: HEK cell assay.
The mark [7] stands for this setting: BACE enzyme assay, read-out: BACE1 FRET assay (IC50).
Setting [8] is: Homo sapiens, HEK293, cell-based assay, HEK cells, IC50's in uM, read-out: HEK cell assay.
[9] abbreviates: Homo sapiens, HEK293, HEK cell-based assay, IC50's in uM, read-out: HEK cell assay.

As for `COCC(=O)N[C@@H](Cc1ccc(F)cc1)[C@H](O)CN[C@H]1CC2(CCC2)Oc2cnc(CC(C)(C)F)cc21` [compound 255], the values for the IC50 in test [1] (setting [3]) and in test [2] (setting [4]) were 0.19 µM and 0.216 µM, respectively.

With `CC(=O)N[C@@H](Cc1ccc(F)cc1)[C@H](O)CNC1c2cc(CC(C)(C)C)cnc2OC2(CCC2)C1F` (some centres unmarked) [compound 355], the IC50 came to 0.117 µM in test [1] (setting [5]) and 0.113 µM in test [2] (setting [6]). `CO[C@H](C)C(=O)N[C@@H](Cc1ccc2c(c1)OCO2)[C@H](O)CN[C@H]1CC2(CCC2)Oc2c1cc(CC(C)(C)C)nc2N(C)C` [compound 135]: the IC50 in test [1] (setting [7]) amounted to 0.0647 µM; in test [2] (setting [4]), 0.175 µM. In the case of `CO[C@@H](C)C(=O)N[C@@H](Cc1cc(F)c2c(c1)OCO2)[C@H](O)CN[C@H]1CC2(CCC2)Oc2ncc(CC(C)(C)C)cc21` [compound 304], the IC50 in test [1] (setting [3]) stood at 0.0376 µM; in test [2] (setting [4]), 0.0882 µM. `CC(=O)N[C@@H](Cc1ccc2c(c1)OCO2)[C@H](O)CN[C@H]1CC2(CCC2)Oc2ncc(C[C@@H](C)C(F)(F)F)cc21` [compound 321]: the IC50 amounted to 0.134 µM in test [1] (setting [5]) and 0.0646 µM in test [2] (setting [6]). For `CO[C@@H](C)C(=O)N[C@@H](Cc1ccc(F)cc1)[C@H](O)CN[C@H]1CC2(CCC2)Oc2c(F)cc(CC(C)(C)C#N)cc21` [compound 173], the IC50 came to 0.0364 µM in test [1] (setting [7]) and 0.0546 µM in test [2] (setting [4]).

`COCC(=O)N[C@@H](Cc1cccc(-c2nccs2)c1F)[C@H](O)CN[C@H]1CC2(CCC2)Oc2ncc(CC(C)(C)C)cc21` [compound 908]: the IC50 in test [2] (setting [8]) was determined as 0.1 µM. Turning to `CC(=O)N[C@@H](Cc1cc(F)cc(F)c1)[C@H](O)CN[C@H]1CC(C)(C)N2CCOc3cc(CC(C)(C)C)cc1c32` [compound 725], the IC50 in test [1] (BACE enzyme assay IC50, read-out: BACE1 FRET assay) came out at 0.059 µM; in test [2] (Homo sapiens, HEK293, HEK cell-based assay IC50, read-out: HEK cell assay), 0.178 µM. For `COCC(=O)N[C@@H](Cc1ccc(F)cc1)[C@H](O)CN[C@H]1CC2(CCC2)Oc2c(F)cc(CC(C)(C)C)cc21` [compound 229], the IC50 is 0.00819 µM in test [1] (setting [3]) and 0.0856 µM in test [2] (setting [4]). Regarding `COCC(=O)N[C@@H](Cc1ccc2c(c1)OCO2)[C@H](O)CN[C@H]1CC2(CCC2)Oc2ncc(CC(C)(C)C#N)cc21` [compound 87], the IC50 in test [1] (setting [7]) amounted to 0.117 µM; in test [2] (setting [4]), 0.0828 µM. With `CC(C)(C)Cc1cnc2c(c1)[C@@H](NC[C@@H](O)[C@H](Cc1ccc(F)cc1)NC(=O)[C@H](O)C(F)(F)F)CC1(CCC1)O2` [compound 68], the IC50 came to 0.0486 µM in test [1] (setting [7]) and 0.0553 µM in test [2] (setting [4]). “N-((1S,2R)-1-((3-cyanophenyl)methyl)-3-(((4′S)-6′-(2,2-dimethylpropyl)-3′,4′-dihydrospiro[cyclobutane-1,2′-pyrano[2,3-b]pyridin]-4′-yl)amino)-2-hydroxypropyl)-1-cyclobutyl-4,4-dimethyl-5-oxo-3-pyrrolidinecarboxamide [compound 60]”: the IC50 amounted to 0.0211 µM in test [1] (setting [7]) and 0.0631 µM in test [2] (HEK cells, cell-based assay, read-out: HEK cell assay (IC50)).

`CC(=O)N[C@@H](Cc1cccc(F)c1)[C@H](O)CN[C@H]1CC2(CCC2)Oc2c(F)cc(CC(C)(C)C)cc21` [compound 220]: the IC50 in test [1] (setting [3]) is 0.00405 µM; in test [2] (setting [4]), 0.0116 µM. Regarding `CC(=O)N[C@@H](Cc1ccc(F)cc1)[C@H](O)CN[C@H]1CC2(CCC2)Oc2c(F)cc(CC(C)(C)C)cc21` [compound 174], the values for the IC50 in test [1] (setting [7]) and in test [2] (setting [4]) were 0.0072 µM and 0.0526 µM, respectively. The matching figures for `CC(=O)N[C@@H](Cc1ccccc1)[C@H](O)CN[C@H]1CC2(CCC2)Oc2c1cc(CC(C)(C)C)nc2N1CCC1` [compound 128]: 0.0332 µM and 0.016 µM. The matching figures for `CC(=O)N[C@@H](Cc1ccc2c(c1)OCO2)[C@H](O)CN[C@H]1CC2(CCC2)Oc2ncc([C@H](F)C(C)(C)C)cc21` [compound 182]: 0.00701 µM and 0.016 µM. In the case of `COCC(=O)N[C@@H](Cc1ccc(F)cc1)[C@H](O)CN[C@H]1CC2(CCC2)Oc2ccc(CC(C)(C)C)nc21` [compound 123, N-((1S,2R)-3-(((4′S)-6′-(2,2-dimethylpropyl)-3′,4′-dihydrospiro[cyclobutane-1,2′-pyrano[3,2-b]pyridin]-4′-yl)amino)-1-((4-fluorophenyl)methyl)-2-hydroxypropyl)-2-(methyloxy)acetamide], the values for the IC50 in test [1] (setting [7]) and in test [2] (setting [4]) were 3.72 µM and 3.81 µM, respectively.

`CCO[C@@H](C)C(=O)N[C@@H](Cc1cccc(-c2nccs2)c1)[C@H](O)CN[C@H]1CC2(CCC2)Oc2ncc(CC(C)(C)C)cc21` [Example 893]: in test [2] (setting [8]), the IC50 came to 0.012 µM.

`COCC(=O)N[C@@H](Cc1cccc(-c2ccccn2)c1)[C@H](O)CN[C@H]1CC2(CCC2)Oc2ncc(CC(C)(C)C)cc21` [compound 841, N-((1S,2R)-3-(((4′S)-6′-(2,2-dimethylpropyl)-3′,4′-dihydrospiro[cyclobutane-1,2′-pyrano[2,3-b]pyridin]-4′-yl)amino)-2-hydroxy-1-(3-(2-pyridinyl)benzyl)propyl)-2-methoxyacetamide]: the IC50 in test [2] (setting [9]) amounted to 0.018 µM. Take `C#Cc1cccc(C[C@H](NC(=O)COC)[C@H](O)CN[C@H]2CC3(CCC3)Oc3ncc(CC(C)(C)C)cc32)c1F` [compound 911]: the IC50 in test [2] (setting [8]) amounted to 0.144 µM. With `COCC(=O)N[C@@H](Cc1cc(Br)cc(OC)c1)[C@H](O)CN[C@H]1CC2(CCC2)Oc2ncc(CC(C)(C)C)cc21` [compound 917], the IC50 in test [1] (BACE enzyme assay, IC50's in uM, read-out: BACE1 FRET assay) worked out at 0.014 µM.

Turning to `CCO[C@H](C)C(=O)N[C@@H](Cc1cccc(-c2nccs2)c1)[C@H](O)CN[C@H]1CC2(CCC2)Oc2ncc(CC(C)(C)C)cc21` [Example 894], in test [2] (setting [8]), the IC50 came out at 0.018 µM. `CC(=O)NC(Cc1ccc(F)cc1)C(O)CNC1CC2(CC(C#N)C2)Oc2ncc(CC(C)(C)C)cc21` [compound 262, N-((1S,2R)-3-(((1r,3S,4′S)-3-cyano-6′-(2,2-dimethylpropyl)-3′,4′-dihydrospiro[cyclobutane-1,2′-pyrano[2,3-b]pyridin]-4′-yl)amino)-1-((4-fluorophenyl)methyl)-2-hydroxypropyl)acetamide]: the IC50 in test [1] (setting [3]) amounted to 0.0465 µM.

With `COCC(=O)N[C@@H](Cc1cccc(-c2nc(C)cs2)c1)[C@H](O)CN[C@H]1CC2(CCC2)Oc2ncc(CC(C)(C)C)cc21` [compound 758], the IC50 in test [2] (setting [9]) came to 0.014 µM. For `COC(C)C(=O)NC(Cc1ccc2c(c1)OCO2)C(O)CNC1CC2(CC(O)C2)Oc2cnccc21` [compound 245, (2R)—N-((1S,2R)-1-(1,3-benzodioxol-5-ylmethyl)-2-hydroxy-3-(((1r,3R,4′S)-3-hydroxy-3′,4′-dihydrospiro[cyclobutane-1,2′-pyrano[2,3-c]pyridin]-4′-yl)amino)propyl)-2-(methyloxy)propanamide], the IC50 in test [1] (setting [3]) came to 40 µM.

For the compound `COCC(=O)N[C@@H](Cc1ccc(F)cc1)[C@H](O)CN[C@H]1C[C@]2(C[C@@H](C#N)C2)Oc2ncc(CC(C)(C)C)cc21` [compound 261, N-((1S,2R)-3-(((1r,3S,4′S)-3-cyano-6′-(2,2-dimethylpropyl)-3′,4′-dihydrospiro[cyclobutane-1,2′-pyrano[2,3-b]pyridin]-4′-yl)amino)-1-((4-fluorophenyl)methyl)-2-hydroxypropyl)-2-(methyloxy)acetamide], the IC50 in test [1] (setting [3]) was 0.0389 µM. Regarding `C#Cc1ccc(C[C@H](NC(=O)COC)[C@H](O)CN[C@H]2CC3(CCC3)Oc3ncc(CC(C)(C)C)cc32)cc1` [Example 885], the IC50 in test [2] (setting [8]) turned out to be 0.099 µM. For `CC(=O)N[C@@H](Cc1cccc(F)c1)[C@H](O)CN[C@H]1CC2(CCC2)Oc2ncc([C@@H](F)[C@H](C)C(F)(F)F)cc21` [compound 323], the IC50 in test [1] (setting [5]) stood at 0.365 µM.
